Reference: patent publication US20060069132A1, “Azolecarboxamide herbicides” (priority 2004, published 2006)

Experiments:
pigweed = assay: Test B pre-/postemergence herbicide test; type: in vivo, Amaranthus retroflexus
Method in brief: (§1)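 Formulation: non-phytotoxic solvent mix with surfactant. Timing: preemergence on seed and postemergence on 2–18 cm plants, applied concurrently. Readout after 13–15 d greenhouse: visual 0–100 control rating against controls.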

ducksalad = assay: Test B flooded paddy test; type: in vivo, Heteranthera limosa; conditions: 1000 g ai/ha, scale 0 to 100 (0 no effect, 100 complete control)
Method in brief: (§2)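 Read-out: visual comparison with controls, scored 0 to 100, where 100 means complete control and 0 no effect. Formulated chemicals were applied postemergence to plants 2–18 cm tall (1- to 4-leaf), or to flooded-paddy plants at the 2-leaf stage, then held 13 to 15 days under glass.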

barnyardgrass [1] = assay: Test B pre-/postemergence herbicide test; type: in vivo, Echinochloa crus-galli; conditions: for Barnyardgrass plant response rating: Postemergence, scale 0 (no effect) to 100 (complete control)
Method in brief: (§3)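 Pre: seeds sown, then sprayed. Post: 1–4-leaf plants (2–18 cm) sprayed at the same time. Paddy: flooded, treated at 2-leaf stage. Formulation: non-phytotoxic solvent with surfactant. Greenhouse 13–15 days; visual 0–100 score relative to controls.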

cocklebur = assay: Test B pre-/postemergence herbicide test; type: in vivo, Xanthium strumarium
Method in brief: as §3

rice = assay: Test B flooded paddy test; type: in vivo, Oryza sativa; conditions: 1000 g ai/ha, scale 0 to 100 (0 no effect, 100 complete control)
Method in brief: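 Scale 0–100: zero equals no visible effect, 100 complete control, judged by eye relative to controls. Timing: 13 to 15 days in greenhouse post-treatment. Growth stage at spraying: two leaves (paddy) or one to four leaves, 2–18 cm (postemergence).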

velvetleaf = assay: Test B pre-/postemergence herbicide test; type: in vivo, Abutilon theophrasti
Method in brief: as §1

corn = assay: Test B pre-/postemergence herbicide test; type: in vivo, Zea mays
Method in brief: as §1

canarygrass = assay: Test C postemergence herbicide test; type: in vivo, Phalaris minor
Protocol: (§4) At the same time, plants selected from these crop and weed species and also winter barley (Hordeum vulgare L.), blackgrass (Alopecurus myosuroides Huds.), canarygrass (Phalaris minor Retz.), chickweed (Stellaria media (L.) Vill.), downy bromegrass (Bromus tectorum L.), green foxtail (Setaria viridis (L.) Beauv.), Italian ryegrass (Lolium multiflorum Lam.), wheat (Triticum aestivum L.), wild oat (Avenafatua L.) and windgrass (Apera spica-venti (L.) Beauv.) were treated with postemergence applications of some of the test chemicals formulated in the same manner. Plants ranged in height from 2 to 18 cm (1- to 4-leaf stage) for postemergence treatments. Plant species in the flooded paddy test consisted of rice (Oryza sativa), smallflower umbrella sedge (Cyperus difformis L.), ducksalad (Heteranthera limosa (Sw.) Willd.) and barnyardgrass (Echinochloa crus-galli (L.) Beauv.) grown to the 2-leaf stage for testing. Treated plants and controls were maintained in a greenhouse for 12 to 14 days, after which time all species were compared to controls and visually evaluated. Plant response ratings, summarized in Table C, are based on a scale of 0 to 100 where 0 is no effect and 100 is complete control. A dash (-) response means no test result.

lambsquarters = assay: Test B pre-/postemergence herbicide test; type: in vivo, Chenopodium album
Method in brief: as §1

giant foxtail = assay: Test B pre-/postemergence herbicide test; type: in vivo, Setaria faberi
Method in brief: as §1

wild oat [2] = assay: Test B postemergence herbicide test; type: in vivo, Avena fatua
Method in brief: (§5)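 Each value is a visual 0–100 response rating taken against controls 13 to 15 days after treatment in the greenhouse. Plants received formulated chemical postemergence at the 1- to 4-leaf stage or, in flooded paddy, at the 2-leaf stage.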

downy bromegrass = assay: Test C postemergence herbicide test; type: in vivo, Bromus tectorum
Protocol: as §4

large crabgrass = assay: Test B pre-/postemergence herbicide test; type: in vivo, Digitaria sanguinalis
Method in brief: as §1

green foxtail = assay: Test C postemergence herbicide test; type: in vivo, Setaria viridis
Protocol: as §4

Surinam grass = assay: Test B pre-/postemergence herbicide test; type: in vivo, Urochloa decumbens
Method in brief: as §1

morningglory = assay: Test B pre-/postemergence herbicide test; type: in vivo, Ipomoea coccinea
Method in brief: as §3

blackgrass [3] = assay: Test C postemergence herbicide test; type: in vivo, Alopecurus myosuroides
Protocol: as §4

wheat [4] = assay: Test B postemergence herbicide test; type: in vivo, Triticum aestivum; design: key to Wheat plant response rating: 0 = no effect, 100 = complete control
Method in brief: as §5

Italian ryegrass = assay: Test C postemergence herbicide test; type: in vivo, Lolium multiflorum
Protocol: as §4

winter barley = assay: Test C postemergence herbicide test; type: in vivo, Hordeum vulgare
Protocol: as §4

wheat [5] = assay: Test C postemergence herbicide test; type: in vivo, Triticum aestivum
Protocol: as §4

blackgrass [6] = assay: Test B postemergence herbicide test; type: in vivo, Alopecurus myosuroides
Method in brief: as §2

barnyardgrass [7] = assay: Test B flooded paddy test; type: in vivo, Echinochloa crus-galli; conditions: 1000 g ai/ha, scale 0 to 100 (0 no effect, 100 complete control)
Method in brief: as §2

[8] = tested on: small flower umbrella sedge; assay: Test B flooded paddy test; type: in vivo, Cyperus difformis; conditions: 1000 g ai/ha, scale 0 to 100 (0 no effect, 100 complete control)
Method in brief: as §2

wild oat [9] = assay: Test C postemergence herbicide test; type: in vivo, Avenafatua
Protocol: as §4

windgrass = assay: Test C postemergence herbicide test; type: in vivo, Apera spica-venti
Protocol: as §4

[10] = 125 g ai/ha, 0 is no effect, 100 is complete control, preemergence
[11] = Postemergence, 500 g ai/ha, scale 0 (no effect) to 100 (complete control)
[12] = postemergence, 125 g ai/ha, scale 0 to 100
[13] = Postemergence, 250 g ai/ha, scale 0 to 100, 0 no effect, 100 complete control
[14] = Postemergence, 500 g ai/ha, scale 0 to 100, 0 no effect, 100 complete control
[15] = postemergence, 62 g ai/ha, scale 0 to 100
[16] = Postemergence, 500 g ai/ha, scale 0 to 100

Structure (SMILES): C=CCN(CC=C)C(=O)c1ccc(F)c(NC(=O)c2cc(C(C)(C)C)nn2CC)c1 [Compound 431]
- Plant response rating (0 to 100 scale), Pigweed (pigweed; [10]): 40
- Pigweed plant response rating (pigweed; [11]): 70
- Pigweed plant response rating (pigweed; [12]): 50
- Ducksalad plant response rating (ducksalad): 80
- Plant response rating (0 to 100 scale), Barnyardgrass (barnyardgrass [1]; [10]): 10
- Barnyardgrass plant response rating (barnyardgrass [1]; 125 g ai/ha): 10
- Barnyardgrass plant response rating (barnyardgrass [1]; 500 g ai/ha): 20
- Plant response rating (0 to 100 scale), Cocklebur (cocklebur; [10]): 0
- Cocklebur plant response rating (cocklebur; [11]): 60
- Cocklebur plant response rating (cocklebur; [12]): 30
- Rice plant response rating (rice): 30
- Plant response rating (0 to 100 scale), Velvetleaf (velvetleaf; [10]): 20
- Velvetleaf plant response rating (velvetleaf; [11]): 40
- Velvetleaf plant response rating (velvetleaf; [12]): 20
- Plant response rating (0 to 100 scale), Corn (corn; [10]): 0
- Corn plant response rating (corn; [11]): 20
- Corn plant response rating (corn; [12]): 20
- Plant response rating, Canarygrass (canarygrass; [13]): 60
- Plant response rating, Canarygrass (canarygrass; [14]): 60
- Plant response rating, Canarygrass (canarygrass; [12]): 45
- Plant response rating, Canarygrass (canarygrass; [15]): 40
- Plant response rating (0 to 100 scale), Lambsquarters (lambsquarters; [10]): 60
- Lambsquarters plant response rating (lambsquarters; [11]): 60
- Lambsquarters plant response rating (lambsquarters; [12]): 40
- Plant response rating (0 to 100 scale), Foxtail, Giant (giant foxtail; [10]): 50
- Foxtail, Giant plant response rating (giant foxtail; [11]): 30
- Foxtail, Giant plant response rating (giant foxtail; [12]): 20
- Oat, Wild plant response rating (wild oat [2]; [11]): 50
- Oat, Wild plant response rating (wild oat [2]; [12]): 30
- Plant response rating, Bromegrass, Downy (downy bromegrass; [13]): 55
- Plant response rating, Bromegrass, Downy (downy bromegrass; [14]): 60
- Plant response rating, Bromegrass, Downy (downy bromegrass; [12]): 45
- Plant response rating, Bromegrass, Downy (downy bromegrass; [15]): 40
- Plant response rating (0 to 100 scale), Crabgrass, Large (large crabgrass; [10]): 60
- Crabgrass, Large plant response rating (large crabgrass; [11]): 30
- Crabgrass, Large plant response rating (large crabgrass; [12]): 20
- Plant response rating, Foxtail, Green (green foxtail; [13]): 60
- Plant response rating, Foxtail, Green (green foxtail; [14]): 65
- Plant response rating, Foxtail, Green (green foxtail; [12]): 60
- Plant response rating, Foxtail, Green (green foxtail; [15]): 45
- Plant response rating (0 to 100 scale), Surinam Grass (Surinam grass; [10]): 10
- Surinam Grass plant response rating (Surinam grass; [11]): 30
- Surinam Grass plant response rating (Surinam grass; [12]): 20
- Plant response rating (0 to 100 scale), Morningglory (morningglory; [10]): 0
- Morningglory plant response rating (morningglory; [11]): 70
- Morningglory plant response rating (morningglory; [12]): 40
- Blackgrass plant response rating (blackgrass [3]; [16]): 60
- Plant response rating, Blackgrass (blackgrass [3]; [13]): 60
- Plant response rating, Blackgrass (blackgrass [3]; [12]): 55
- Plant response rating, Blackgrass (blackgrass [3]; [15]): 45
- Wheat plant response rating (wheat [4]; 500 g ai/ha, scale 0 to 100, 0 no effect, 100 complete control, preemergence): 10
- Wheat plant response rating (wheat [4]; [11]): 30
- Wheat plant response rating (wheat [4]; [12]): 30
- Plant response rating, Ryegrass, Italian (Italian ryegrass; [14]): 55
- Plant response rating, Ryegrass, Italian (Italian ryegrass; [12]): 45
- Plant response rating, Ryegrass, Italian (Italian ryegrass; [15]): 40
- Barley, Winter plant response rating (winter barley; [16]): 60
- Plant response rating, Barley, Winter (winter barley; [13]): 45
- Plant response rating, Barley, Winter (winter barley; postemergence, 125 g ai/ha, scale 0 to 100 (0 no effect, 100 complete control)): 40
- Plant response rating, Barley, Winter (winter barley; postemergence, 62 g ai/ha, scale 0 to 100 (0 no effect, 100 complete control)): 40
- Plant response rating, Wheat (wheat [5]; [14]): 45
- Plant response rating, Wheat (wheat [5]; [12]): 40
- Plant response rating, Wheat (wheat [5]; [15]): 40
- Blackgrass plant response rating (blackgrass [6]; [11]): 50
- Blackgrass plant response rating (blackgrass [6]; [12]): 30
- Barnyardgrass plant response rating (barnyardgrass [7]): 60
- Sedge, Umbrella plant response rating [8]: 80
- Plant response rating, Oat, Wild (wild oat [9]; [14]): 65
- Plant response rating, Oat, Wild (wild oat [9]; [12]): 55
- Plant response rating, Oat, Wild (wild oat [9]; [15]): 45
- Plant response rating, Windgrass (windgrass; [14]): 60
- Plant response rating, Windgrass (windgrass; [12]): 40
- Plant response rating, Windgrass (windgrass; [15]): 40
